{"source": "patent US4246262A", "about": "“Derivatives of amidinopenicillanic acid” (Leo Pharmaceutical Products, Ltd. A/S, priority 1977, dated 1981)", "assay_in_all_cases": "antibacterial activity, IC50 (concentration required for 50 percent inhibition)", "assay_type_in_all_cases": "cell-based", "key": {"[1]": {"test_system": "E.coli HA 2 Leo strain", "details": "Escherichia coli, HA2LEOSTRAIN", "source_text": "(§1) In the table below, the antibacterial activity of the compound of Example 2 is compared to that of the known compounds Ampicillin and Mecillinam.\n(§2) In the table IC50 means the concentration required for 50 percent inhibition."}, "[2]": {"test_system": "E.coli W3110 (RTEM)", "details": "Escherichia coli", "source_text": "as §1, §2"}, "[3]": {"test_system": "Enterobacter cloacae P 99", "details": "P99", "source_text": "as §1, §2"}, "[4]": {"test_system": "Klebsiella pneumoniae ATCC 10273", "details": "ATCC10273", "source_text": "as §1, §2"}, "[5]": {"test_system": "Pseudomonas aeruginosa BA 2 Leo strain", "details": "BA2LEOSTRAIN", "source_text": "as §1, §2"}, "[6]": {"test_system": "Pseudomonas aeruginosa PS 18s", "details": "PS18S", "source_text": "as §1, §2"}, "[7]": {"test_system": "Salmonella cholerasuis NCTC 5735", "details": "NCTC5735", "source_text": "as §1, §2"}, "[8]": {"test_system": "Salmonella typhimurium NCTC 5710", "details": "Salmonella enterica", "source_text": "as §1, §2"}}, "note": "Structures can show the parent of a compound that is named as a salt."}
{"smiles": "CC1(C)S[C@@H]2[C@H](NC(=O)[C@H](N)c3ccccc3)C(=O)N2[C@H]1C(=O)O", "note": "[Ampicillin]", "values": [{"measurement": "IC50", "setting": "[1]", "result": 1.3, "unit": "µg/mL"}, {"measurement": "IC50", "setting": "[2]", "result": "> 100", "unit": "µg/mL"}, {"measurement": "IC50", "setting": "[3]", "result": "> 100", "unit": "µg/mL"}, {"measurement": "IC50", "setting": "[4]", "result": 79, "unit": "µg/mL"}, {"measurement": "IC50", "setting": "[5]", "result": "> 100", "unit": "µg/mL"}, {"measurement": "IC50", "setting": "[6]", "result": 50, "unit": "µg/mL"}, {"measurement": "IC50", "setting": "[7]", "result": 0.25, "unit": "µg/mL"}, {"measurement": "IC50", "setting": "[8]", "result": 0.4, "unit": "µg/mL"}]}
{"smiles": "CC1(C)S[C@@H]2[C@H](N=CN3CCC(CSCCN)CC3)C(=O)N2[C@H]1C(=O)O", "note": "[Example 2, 6-[4'-(2\"-Aminoethylthiomethyl)-piperidino-methyleneamino]-penicillanic acid hydrochloride]", "values": [{"measurement": "IC50", "setting": "[1]", "result": 0.05, "unit": "µg/mL"}, {"measurement": "IC50", "setting": "[2]", "result": 1.6, "unit": "µg/mL"}, {"measurement": "IC50", "setting": "[3]", "result": 0.063, "unit": "µg/mL"}, {"measurement": "IC50", "setting": "[4]", "result": 0.32, "unit": "µg/mL"}, {"measurement": "IC50", "setting": "[5]", "result": 50, "unit": "µg/mL"}, {"measurement": "IC50", "setting": "[6]", "result": 40, "unit": "µg/mL"}, {"measurement": "IC50", "setting": "[7]", "result": 0.05, "unit": "µg/mL"}, {"measurement": "IC50", "setting": "[8]", "result": 0.05, "unit": "µg/mL"}]}
{"smiles": "CC1(C)S[C@@H]2[C@H](/N=C/N3CCCCCC3)C(=O)N2[C@H]1C(=O)O", "note": "[Mecillinam]", "values": [{"measurement": "IC50", "setting": "[1]", "result": 0.016, "unit": "µg/mL"}, {"measurement": "IC50", "setting": "[2]", "result": 2, "unit": "µg/mL"}, {"measurement": "IC50", "setting": "[3]", "result": 0.1, "unit": "µg/mL"}, {"measurement": "IC50", "setting": "[4]", "result": "~1", "unit": "µg/mL"}, {"measurement": "IC50", "setting": "[5]", "result": "> 100", "unit": "µg/mL"}, {"measurement": "IC50", "setting": "[6]", "result": "> 100", "unit": "µg/mL"}, {"measurement": "IC50", "setting": "[7]", "result": 0.05, "unit": "µg/mL"}, {"measurement": "IC50", "setting": "[8]", "result": 0.05, "unit": "µg/mL"}]}
